Active and inactive are the calls of the source. Rule as the data show it, for most assays here: actives have a measured AC50 and inactives only a lower limit.
How the values were obtained:
[1] = target: T1, Replicative DNA helicase DnaB (Mycobacterium tuberculosis, UniProt P9WMR3); assay: DnaB intein splicing inhibitors, dose response, biochemical, cell-free fluorescence (AID 449749); format: functional
T1 sequence (P9WMR3 whole entry): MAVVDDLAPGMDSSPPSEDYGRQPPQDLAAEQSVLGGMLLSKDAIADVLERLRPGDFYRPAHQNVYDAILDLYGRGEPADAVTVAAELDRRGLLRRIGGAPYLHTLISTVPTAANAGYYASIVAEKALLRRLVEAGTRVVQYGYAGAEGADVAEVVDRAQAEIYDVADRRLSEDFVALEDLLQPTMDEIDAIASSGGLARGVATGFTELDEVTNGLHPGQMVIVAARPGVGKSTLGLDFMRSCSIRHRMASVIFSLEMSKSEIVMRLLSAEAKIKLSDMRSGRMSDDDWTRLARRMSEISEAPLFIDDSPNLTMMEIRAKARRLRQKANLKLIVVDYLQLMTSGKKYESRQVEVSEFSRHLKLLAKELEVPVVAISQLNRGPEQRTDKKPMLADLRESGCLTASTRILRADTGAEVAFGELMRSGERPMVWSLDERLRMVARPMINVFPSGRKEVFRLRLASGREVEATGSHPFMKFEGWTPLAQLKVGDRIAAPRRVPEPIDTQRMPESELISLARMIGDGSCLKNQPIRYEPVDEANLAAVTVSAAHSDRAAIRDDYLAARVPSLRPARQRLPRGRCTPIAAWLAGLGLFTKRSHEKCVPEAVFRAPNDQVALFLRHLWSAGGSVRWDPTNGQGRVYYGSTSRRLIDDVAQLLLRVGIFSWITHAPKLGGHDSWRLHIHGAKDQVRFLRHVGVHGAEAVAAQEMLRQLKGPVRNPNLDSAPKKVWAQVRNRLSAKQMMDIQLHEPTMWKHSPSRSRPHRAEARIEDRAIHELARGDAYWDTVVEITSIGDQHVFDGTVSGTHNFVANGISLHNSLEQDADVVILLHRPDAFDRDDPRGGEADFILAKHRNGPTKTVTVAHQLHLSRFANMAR

[2] = target: T2, Histone-lysine N-methyltransferase NSD2 (Homo sapiens, UniProt O96028); format: biochemical
T2 sequence (O96028 whole entry): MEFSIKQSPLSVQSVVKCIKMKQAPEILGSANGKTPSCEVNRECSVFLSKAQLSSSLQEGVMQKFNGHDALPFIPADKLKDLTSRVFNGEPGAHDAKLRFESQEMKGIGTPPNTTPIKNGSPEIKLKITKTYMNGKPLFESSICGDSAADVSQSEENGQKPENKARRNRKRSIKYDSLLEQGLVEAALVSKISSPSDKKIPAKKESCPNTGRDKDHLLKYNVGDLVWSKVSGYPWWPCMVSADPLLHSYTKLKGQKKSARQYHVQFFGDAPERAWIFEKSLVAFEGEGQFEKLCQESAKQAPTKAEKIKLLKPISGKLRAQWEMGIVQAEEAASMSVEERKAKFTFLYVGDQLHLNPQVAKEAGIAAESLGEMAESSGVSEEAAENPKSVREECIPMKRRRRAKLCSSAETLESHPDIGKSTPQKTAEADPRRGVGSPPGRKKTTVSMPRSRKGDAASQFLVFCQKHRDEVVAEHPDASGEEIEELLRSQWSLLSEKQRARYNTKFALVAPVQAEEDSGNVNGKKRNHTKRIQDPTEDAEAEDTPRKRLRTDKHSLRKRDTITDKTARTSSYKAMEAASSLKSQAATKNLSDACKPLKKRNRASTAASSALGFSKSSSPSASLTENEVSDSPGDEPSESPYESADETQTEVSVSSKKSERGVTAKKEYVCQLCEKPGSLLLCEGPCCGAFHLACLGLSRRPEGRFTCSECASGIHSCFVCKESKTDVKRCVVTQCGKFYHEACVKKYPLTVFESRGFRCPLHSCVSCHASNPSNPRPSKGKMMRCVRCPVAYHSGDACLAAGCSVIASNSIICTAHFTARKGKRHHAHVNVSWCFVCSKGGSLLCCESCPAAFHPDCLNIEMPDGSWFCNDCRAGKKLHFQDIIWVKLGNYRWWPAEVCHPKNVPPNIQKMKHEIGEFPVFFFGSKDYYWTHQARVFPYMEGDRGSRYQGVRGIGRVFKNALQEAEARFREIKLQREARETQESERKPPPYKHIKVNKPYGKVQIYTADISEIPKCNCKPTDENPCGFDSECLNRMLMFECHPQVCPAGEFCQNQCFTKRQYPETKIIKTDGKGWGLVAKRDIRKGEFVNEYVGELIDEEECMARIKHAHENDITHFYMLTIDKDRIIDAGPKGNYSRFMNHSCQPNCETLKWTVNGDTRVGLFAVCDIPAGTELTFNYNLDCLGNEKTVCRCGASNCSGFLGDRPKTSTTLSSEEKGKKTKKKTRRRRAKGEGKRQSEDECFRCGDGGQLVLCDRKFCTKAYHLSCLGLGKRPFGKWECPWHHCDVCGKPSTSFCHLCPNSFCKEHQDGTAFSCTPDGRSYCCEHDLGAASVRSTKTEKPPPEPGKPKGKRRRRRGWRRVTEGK

[3] = target: T3, Tyrosine-protein phosphatase non-receptor type 22 (Homo sapiens, UniProt Q9Y2R2); assay: LYP1 Fluorescent Assay using OMFP substrate for In Vitro dose response studies. [Related pubchem assays (depositor defined):AID1779, AID1784, AID435024]
T3 sequence (Q9Y2R2 whole entry): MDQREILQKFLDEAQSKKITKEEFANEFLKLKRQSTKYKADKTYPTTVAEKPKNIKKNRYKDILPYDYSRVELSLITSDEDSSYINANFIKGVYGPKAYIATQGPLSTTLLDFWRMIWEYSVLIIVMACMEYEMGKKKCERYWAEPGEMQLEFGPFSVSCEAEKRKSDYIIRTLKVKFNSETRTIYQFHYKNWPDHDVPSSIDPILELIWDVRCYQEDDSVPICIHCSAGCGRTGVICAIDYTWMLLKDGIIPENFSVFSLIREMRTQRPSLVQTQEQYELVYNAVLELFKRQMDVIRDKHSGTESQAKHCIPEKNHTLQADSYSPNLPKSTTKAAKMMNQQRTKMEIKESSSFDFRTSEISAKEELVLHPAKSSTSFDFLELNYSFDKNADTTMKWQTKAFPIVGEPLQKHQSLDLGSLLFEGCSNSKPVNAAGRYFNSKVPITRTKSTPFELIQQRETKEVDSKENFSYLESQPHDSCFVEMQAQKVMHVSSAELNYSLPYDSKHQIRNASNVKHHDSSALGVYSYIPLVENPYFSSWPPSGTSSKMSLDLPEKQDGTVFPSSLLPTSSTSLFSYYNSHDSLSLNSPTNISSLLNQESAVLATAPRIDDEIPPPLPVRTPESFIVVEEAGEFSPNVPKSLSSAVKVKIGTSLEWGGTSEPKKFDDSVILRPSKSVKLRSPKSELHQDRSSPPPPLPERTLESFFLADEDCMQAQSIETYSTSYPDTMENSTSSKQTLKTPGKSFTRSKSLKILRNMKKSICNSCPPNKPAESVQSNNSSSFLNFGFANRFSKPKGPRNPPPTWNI

Row | SMILES | AC50 [1] | AC50 [2] | IC50 [3]
1 | CCN(CC)CCN1C(=O)c2cccc3cc(N)cc(c23)C1=O | 0.272 µM (active) | – | –
2 | O=S(=O)(O)c1cc(Cl)cc(N=Nc2ccc(O)cc2O)c1O | – | 7.27 µM (active) | –
3 | C=C1C(=O)O[C@@H]2C[C@@H](C)[C@@H]3C=CC(=O)[C@@]3(C)[C@@H](OC(=O)CC(=O)O[C@H]3[C@@H]4C(=C)C(=O)O[C@@H]4C[C@@H](C)[C@@H]4C=CC(=O)[C@]43C)[C@H]12 | 111 µM (active) | – | –
4 | O=C(O)c1cccc(-n2cccc2/C=C2/NC(=O)N(c3ccc(Cl)cc3)C2=O)c1 | – | 0.72 µM (active) | 4.54 µM (active)
